Reference: paper PMC3671111, “A Phase I, open-label, randomized, crossover study in three parallel groups to evaluate the effect of Rifampicin, Ketoconazole, and Omeprazole on the pharmacokinetics of THC/CBD oromucosal spray in healthy volunteers” (SpringerPlus, 2013)
Values joined by “and” are separate entries in the source; they are usually repeats but may differ in a detail not shown here. Equal entries are not always repeated. Marks after values point to notes of the source that are not given here.

Tests used:
[1] = Phase I drug-drug interaction PK, Group 2: THC/CBD spray alone or with ketoconazole, plasma by GC-MS; details: for AUC(0-inf) / AUC(0-t) / CL/F / Cmax / Kel / Varea/F / t½ / Tmax: plasma; for AUC(0-inf) / AUC(0-t) / CL/F / Cmax / Kel / Varea/F / t½: mean (SD); for Tmax: median (range)
Protocol: (§1) Subjects received rifampicin on Days 1-9. […] Subjects received ketoconazole on Days 1-4.
(§2) Blood samples were collected at specified times and stored on ice (except rifampicin PK samples which were stored in iced water) prior to processing and storage. Plasma samples were separated by centrifugation (approximately 2500 rpm × 15 minutes at 4°C). Samples were stored in 4 mL amber glass screw top glass vials with PTFE lined screw caps labelled with Guys Drug Research (Quintiles Limited) labels. The aliquots were stored in clearly labelled containers in a freezer set at or below -20°C, until shipped for assay. Samples were shipped on dry ice at the appropriate time-points.
(§3) The assay validation was undertaken by Advanced Bioanalytical Service Laboratories (London, UK), who developed the technique after reviewing the literature, which was based on the methodology adopted by three different groups (Foltz et al. [1983]; Goodall & Basteyns [1995]; Kemp et al. [1995]), and designed with reference to FDA guidelines for industry (FDA Guidance for Industry [2012]). The method utilised protein precipitation, solvent extraction and derivatisation for the sample preparation and then sample analysis by capillary gas chromatography and detection by a mass spectrometer (GC-MS). The validation procedure investigated the calibration model with the best regression fit over the concentration range 0.1 - 100 ng/mL for CBD, THC and 11-OH-THC, as well as precision and accuracy of the method, stability, carry-over, and specificity.
(§4) Human plasma from healthy volunteers was used to prepare the standards and quality control (QC) samples, with analytes extracted using hexane/ethyl acetate (7:1 ratio), derivatised with N,O-Bis(trimethylsilyl)trifluoroacetamide. Analytic grade THC (Sigma, UK), CBD (Sigma, UK) and 11-OH-THC (Radian International and Cerillant, UK) were obtained, and three sets of CBD, THC and 11-OH-THC were used to support the study. Deuterated THC-d3 (Sigma, UK) was used as the internal standard. The GC-MS equipment was a Hewlett Packard 6890 Gas Chromatograph attached to a Hewlett Packard 5973 Mass Selective Detector. Data handling was carried out using an MS Chemstation System and the peak area ratio of the analytes to the internal standard was calculated in Excel (2000). The concentrations were calculated from the ratio data using least squares ln(y) on ln(x) regression performed in Excel (2000), and were then checked manually. Regression analysis was undertaken to find the regression model that best described the calibration data (for details, see ([Miller & Miller 1992])).
(§5) A 0.5 mL aliquot of test sample, QC or blank plasma was placed into a test tube. The blank plasma was spiked with 50 μL of the appropriate standard solution to produce the calibration standards. 50 μL of the internal standard was added to each test tube. The samples were then diluted by the addition of 500 μL of 0.1% (w/v) ascorbic acid and the protein precipitated by the addition of 1.0 mL of acetonitrile. The proteins were removed by centrifugation and the supernatant concentrated to 1 mL using nitrogen at 50 °C. The samples were then basified by the addition of 300 μL of 5M sodium hydroxide and the analytes extracted by the addition of 2.0 mL of 7:1 hexane:ethyl acetate. After mixing for 16 minutes the tubes were centrifuged and the top layer transferred into clean 3 dram vials. The solvent was removed using nitrogen at 70 °C and the dried extract resuspended in 100 μL of BSTFA and transferred to microvials, capped and placed at 70 °C for 30 minutes to derivatise the analytes. The microvials were then cooled and loaded onto the autosampler tray for analysis where 1 μL was injected onto the GC-MS system.

[2] = Phase I drug-drug interaction PK, Group 3: THC/CBD spray alone or with omeprazole, plasma by GC-MS; details: for AUC(0-inf) / AUC(0-t) / CL/F / Cmax / Kel / Varea/F / t½ / Tmax: n = 12, plasma; for AUC(0-inf) / AUC(0-t) / CL/F / Cmax / Kel / Varea/F / t½: mean (SD); for Tmax: median (range); for Cmax and AUC % Co-efficient of Variation (CV%) range: inter-subject variability
Protocol: as §1, §2, §3, §4, §5

[3] = Phase I drug-drug interaction PK, Group 1: THC/CBD spray alone or with rifampicin, plasma by GC-MS; details: for AUC(0-inf) / AUC(0-t) / CL/F / Cmax / Kel / Varea/F / t½ / Tmax: n = 12, plasma; for AUC(0-inf) / AUC(0-t) / CL/F / Cmax / Kel / Varea/F / t½: mean (SD); for Tmax: median (range)
Protocol: as §1, §2, §3, §4, §5

[4] = Ketoconazole and THC/CBD spray vs THC/CBD spray alone, no-interaction range 0.80 to 1.25
[5] = THC/CBD spray 4 sprays and ketoconazole 400 mg at end of 5-day dosing period, n = 11
[6] = THC/CBD spray alone, single dose 4 sprays (10.8/10 mg), ketoconazole group, n = 12
[7] = THC/CBD spray co-administered with ketoconazole vs alone
[8] = Omeprazole and THC/CBD spray vs THC/CBD spray alone, no-interaction range 0.80 to 1.25
[9] = THC/CBD spray 4 sprays and omeprazole 40 mg at end of 6-day dosing period
[10] = THC/CBD spray alone, single dose 4 sprays (10.8/10 mg), omeprazole group
[11] = THC/CBD spray co-administered with omeprazole vs alone
[12] = Rifampicin and THC/CBD spray vs THC/CBD spray alone, no-interaction range 0.80 to 1.25
[13] = THC/CBD spray 4 sprays and rifampicin 600 mg after repeated daily dosing
[14] = THC/CBD spray alone, single dose 4 sprays (10.8/10 mg), rifampicin group
[15] = THC/CBD spray co-administered with rifampicin vs alone

CCCCCc1cc(O)c2c(c1)OC(C)(C)[C@@H]1CCC(C)=C[C@@H]21 [THC, Δ9-tetrahydrocannabinol]
Geometric mean ratio of AUC(0-inf), point estimate [1, 4]: 1.840
Geometric mean ratio of AUC(0-t), point estimate [1, 4]: 1.770
Geometric mean ratio of Cmax, point estimate [1, 4]: 1.252
AUC(0-inf) [1, 5]: 16.76 (13.80) h*ng/mL
AUC(0-t) [1, 5]: 15.38 (13.43) h*ng/mL
CL/F [1, 5]: 920 L/h and 920 (450) L/h
Cmax [1, 5]: 3.36 (1.65) ng/mL
Kel [1, 5]: 0.189 (0.078) h^-1
Varea/F [1, 5]: 5111 (2221) L
t½ [1, 5]: 4.43 (2.19) h
Tmax [1, 5]: 1.75 (1.00-3.00) h
AUC(0-inf) [1, 6]: 9.22 (5.94)^a h*ng/mL
AUC(0-t) [1, 6]: 8.19 (5.67) h*ng/mL
CL/F [1, 6]: 1504 L/h and 1504 (688)^a L/h
Cmax [1, 6]: 2.65 (1.32) ng/mL
Kel [1, 6]: 0.258 (0.092)^a h^-1
Varea/F [1, 6]: 6328 (4164)^a L
t½ [1, 6]: 3.07 (1.31)^a h
Tmax [1, 6]: 1.50 (0.75-6.00) h
% change in mean Tmax [1, 7]: +17%
% change in t1/2 [1, 7]: +44%
Change in mean Cmax ([1]; THC/CBD spray with ketoconazole vs THC/CBD spray alone): +27%
Change in mean CL/F ([1]; co-administered with ketoconazole vs THC/CBD spray alone): -39%
Substrate for the isoenzyme CYP3A4 (conclusion from ketoconazole interaction) ([1]; suggested by increased exposure with ketoconazole): substrates
Geometric mean ratio of AUC(0-inf), point estimate [2, 8]: 0.962
Geometric mean ratio of AUC(0-t), point estimate [2, 8]: 0.964
Geometric mean ratio of Cmax, point estimate [2, 8]: 1.125
AUC(0-inf) [2, 9]: 8.10 (4.78) h*ng/mL
AUC(0-t) [2, 9]: 7.41 (4.75) h*ng/mL
CL/F [2, 9]: 2284 (2520) L/h
Cmax [2, 9]: 2.48 (1.06) ng/mL
Kel [2, 9]: 0.357 (0.218) h^-1
Varea/F [2, 9]: 6052 (3384) L
t½ [2, 9]: 2.37 (0.92) h
Tmax [2, 9]: 1.25 (1.00-1.75) h
AUC(0-inf) [2, 10]: 9.39 (8.81) h*ng/mL
AUC(0-t) [2, 10]: 8.76 (8.62) h*ng/mL
CL/F [2, 10]: 2161 (1990) L/h
Cmax [2, 10]: 2.50 (1.85) ng/mL
Kel [2, 10]: 0.305 (0.109) h^-1
Varea/F [2, 10]: 6889 (5296) L
t½ [2, 10]: 2.65 (1.25) h
Tmax [2, 10]: 1.25 (0.77-3.02) h
Plasma concentrations and PK parameters compared with THC/CBD spray alone ([2]; THC/CBD spray at end of 6-day omeprazole dosing): similar
% change in Tmax [2, 11]: 0%
% change in t1/2 [2, 11]: -11%
Differences in CL/F on co-administration with omeprazole ([2]; THC/CBD spray with omeprazole vs alone): No significant differences
Substrate for the isoenzyme CYP2C19 (conclusion from omeprazole interaction) ([2]; at the clinically relevant dose of THC/CBD spray investigated): not substrates
Cmax and AUC % Co-efficient of Variation (CV%) range ([2]; THC/CBD spray alone, omeprazole group): 74-98%
Cmax and AUC % Co-efficient of Variation (CV%) range ([2]; THC/CBD spray in combination with omeprazole): 43-64%
Geometric mean ratio of AUC(0-inf), point estimate [3, 12]: 0.761
Geometric mean ratio of AUC(0-t), point estimate [3, 12]: 0.711
Geometric mean ratio of Cmax, point estimate [3, 12]: 0.614
AUC(0-inf) [3, 13]: 7.53 (2.99) h*ng/mL
AUC(0-t) [3, 13]: 6.53 (2.70) h*ng/mL
CL/F [3, 13]: 1595 L/h and 1595 (473) L/h
Cmax [3, 13]: 1.88 (1.07) ng/mL
Kel [3, 13]: 0.189 (0.071) h^-1
Varea/F [3, 13]: 10297 (5888) L
t½ [3, 13]: 4.93 (3.91) h
Tmax [3, 13]: 1.75 (1.25-2.57) h
AUC(0-inf) [3, 14]: 9.86 (3.35)^a h*ng/mL
AUC(0-t) [3, 14]: 9.10 (2.98) h*ng/mL
CL/F [3, 14]: 1207 L/h and 1207 (373)^a L/h
Cmax [3, 14]: 2.94 (1.21) ng/mL
Kel [3, 14]: 0.197 (0.093)^a h^-1
Varea/F [3, 14]: 7625 (4326)^a L
t½ [3, 14]: 4.68 (3.42) ^a h
Tmax [3, 14]: 1.01 (0.50-6.02) h
% change in mean t1/2 [3, 15]: +5%
% change in median Tmax [3, 15]: +73%
Change in mean Cmax ([3]; THC/CBD spray with rifampicin vs THC/CBD spray alone): -36%
Change in mean CL/F ([3]; after multiple dose rifampicin treatment vs THC/CBD spray alone): +32%
